Consider three compounds from patent US7517658B2, “Methods for preparing compositions using a SNORF33 receptor” (H. Lundbeck A/S, priority 1999, dated 2009).

“And” between values parts separate entries of the source, which are not always exact repeats. Equal values may be shown once.

Broadly, the Ki is a dissociation constant, usually derived from enzyme kinetics or from competition with a known ligand.

The target of one test is T1, hSNORF33 (Homo sapiens, UniProt Q96RJ0).
T1 sequence (Q96RJ0 1-339): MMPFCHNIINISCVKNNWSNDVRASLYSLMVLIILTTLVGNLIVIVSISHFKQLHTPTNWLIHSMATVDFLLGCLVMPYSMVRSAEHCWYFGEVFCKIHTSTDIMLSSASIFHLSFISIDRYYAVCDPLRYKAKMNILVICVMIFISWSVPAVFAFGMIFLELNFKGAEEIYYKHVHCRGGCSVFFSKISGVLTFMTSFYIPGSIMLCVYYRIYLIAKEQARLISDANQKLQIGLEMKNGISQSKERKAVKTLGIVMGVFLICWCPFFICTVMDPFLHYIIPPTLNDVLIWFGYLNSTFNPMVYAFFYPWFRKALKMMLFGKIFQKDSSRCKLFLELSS
As to the kind of experiment: [3H]-TYR binding (saturation and displacement) to human SNORF33 COS-7 membranes. The settings on record: human SNORF33 in transfected COS-7 membranes; read-out: Mean Ki ± S.D.M., displacement of [3H]-tyramine. The arrangement: expressed in transfected cells; host or cells: COS-7 (membranes). As for the experimental part:
(§1) [^3H]-TYR and [^3H]-T binding assays were performed essentially as described by Mallard et al. (1992), with minor modifications. Radioligand binding assays were performed by diluting membranes prepared from cells expressing the receptor (with co-expression of the rat G-protein alpha S subunit for human SNORF33) in 25 mM Gly-Gly buffer (Sigma, pH=7.4 @ 0° C.) containing 5 mM ascorbate and 10 μM pargyline (final protein concentration in assay=100-300 μg/ml). Membranes were then incubated with either [^3H]-TYR (American Radiochemicals, specific activity 60 mCi/μmole) or [^3H]-T (Amersham, specific activity 98 mCi/μmole) in the presence or absence of competing ligands on ice for 30 min in a total volume of 250 μl in 96 well microtiter plates. The bound ligand was separated from free by filtration through GF/B filters presoaked in 0.5% polyethyleneimine (PEI), using Tomtec (Wallac) or Brandel Cell Harvester vacuum filtration device. After addition of Ready Safe (Beckman) scintillation fluid, bound radioactivity was quantitated using a Trilux (Wallac) scintillation counter (approximately 20% counting efficiency of bound counts). Data was fit to non-linear curves using GraphPad Prism.
(§2) In this manner, agonist or antagonist compounds that bind to the receptor may be identified as they inhibit the binding of the labeled ligand to the membrane protein of cells expressing the said receptor. Non-specific binding was defined as the amount of radioactivity remaining after incubation of membrane protein in the presence of 10 μM of the unlabeled amine corresponding to the radioligand used. In equilibrium saturation binding assays, membrane preparations or intact cells transfected with the receptor are incubated in the presence of increasing concentrations of the labeled compound to determine the binding affinity of the labeled ligand. The binding affinities of unlabeled compounds may be determined in equilibrium competition binding assays, using a fixed concentration of labeled compound in the presence of varying concentrations of the displacing ligands.
Background: In a radioligand displacement assay an active substance lowers the binding of a labelled ligand.

Another test deals with rSNORF33 (Rattus norvegicus, UniProt Q923Y9). As to the kind of experiment: [3H]-TYR binding (saturation and displacement) to rSNORF33-transfected COS-7 membranes. The arrangement: expressed in transfected cells; host or cells: COS-7 (transient). As to conditions: rSNORF33 in transfected COS-7 membranes; 2–4 experiments; read-out: Mean Ki ± S.D.M., displacement of [3H]-tyramine. As for the experimental part: as §1, with “Radioligand” for “[^3H]-TYR and [^3H]-T binding assays were performed essentially as described by Mallard et al. (1992), with minor modifications. Radioligand”
rSNORF33, sequence (Q923Y9 whole entry): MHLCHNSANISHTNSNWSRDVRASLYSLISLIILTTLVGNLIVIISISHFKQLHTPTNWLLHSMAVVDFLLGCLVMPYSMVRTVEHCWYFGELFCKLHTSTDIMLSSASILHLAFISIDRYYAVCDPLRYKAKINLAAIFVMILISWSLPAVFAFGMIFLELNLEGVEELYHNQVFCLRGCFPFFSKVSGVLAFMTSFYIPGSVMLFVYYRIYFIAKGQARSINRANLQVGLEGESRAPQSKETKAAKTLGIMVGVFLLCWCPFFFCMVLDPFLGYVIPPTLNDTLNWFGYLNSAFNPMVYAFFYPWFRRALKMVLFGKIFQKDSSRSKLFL
as §2

In test [1] the target is T2, mouse SNORF33 (Mus musculus, UniProt Q923Y8).
T2 construct: expressed in transfected cells; host or cells: COS-7 (membranes)
T2 sequence (Q923Y8 whole entry): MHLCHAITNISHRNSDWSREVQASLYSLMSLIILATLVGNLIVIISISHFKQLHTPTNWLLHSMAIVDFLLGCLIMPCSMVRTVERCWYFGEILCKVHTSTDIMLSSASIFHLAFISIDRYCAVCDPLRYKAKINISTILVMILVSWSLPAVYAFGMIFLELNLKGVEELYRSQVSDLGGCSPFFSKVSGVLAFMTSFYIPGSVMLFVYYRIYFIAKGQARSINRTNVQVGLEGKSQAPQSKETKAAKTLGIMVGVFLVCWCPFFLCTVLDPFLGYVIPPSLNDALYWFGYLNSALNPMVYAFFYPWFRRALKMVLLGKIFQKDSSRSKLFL
As to the kind of experiment: [3H]-TYR binding (saturation and displacement) to mouse SNORF33 COS-7 membranes. As to conditions: mouse SNORF33, displacement of [3H]TYR; read-out: Ki (individual determinations). The procedure: as §1, §2

Test [2] addresses T2, mouse SNORF33. As to the kind of experiment: cAMP assay at mouse SNORF33. The test is classed as cell-based. As for the experimental part:
The receptor-mediated stimulation or inhibition of cyclic AMP (cAMP) formation may be assayed in cells expressing the mammalian receptors. Cells are plated in 96-well plates or other vessels and preincubated in a buffer such as HEPES buffered saline (NaCl (150 mM), CaCl2 (1 mM), KCl (5 mM), glucose (10 mM)) supplemented with a phosphodiesterase inhibitor such as 5 mM theophylline, with or without protease inhibitor cocktail (For example, a typical inhibitor cocktail contains 2 μg/ml aprotinin, […] leupeptin, and 10 μg/ml phosphoramidon.) for 20 min at 37° C., in 5% CO2. Test compounds are added with or without […] forskolin and incubated for an additional 10 min at 37° C. The medium is then aspirated and the reaction stopped by the addition of 100 mM HCl or other methods. The plates are stored at 4° C. for 15 min, and the cAMP content in the stopping solution is measured by radioimmunoassay. Radioactivity may be quantified using a gamma counter equipped with data reduction software. Specific modifications may be performed to optimize the assay for the receptor or to alter the detection method of cAMP.
COS-7 cells were transiently transfected with rSNORF33 gene using the calcium phosphate method and plated in 96-well plates. 48 hours after transfection, cells were washed twice with Dulbecco's phosphate buffered saline (PBS) supplemented with 10 mM HEPES, 10 mM glucose, 5 mM theophylline and 10 μM pargyline and were incubated in the same buffer for 20 min at 37° C., in […] 5% CO2. Test compounds were added and cells were incubated for an additional 10 min at 37° C. The medium was then aspirated and the reaction stopped by the addition of 100 mM HCl. The plates were stored at −20° C. for 2-5 days. For cAMP measurement, plates were thawed and the cAMP content in each well was measured by radioimmunoassay cAMP Scintillation Proximity Assay (Amersham Pharmacia Biotech). Radioactivity was quantified using microbeta Trilux counter (Wallac).
Background: Cyclic AMP is a second messenger, typically raised through Gs and lowered through Gi signalling.

The next test addresses cloned 5-HT receptors. The settings on record: read-out: Ki values at several cloned 5-HT receptors; cited from earlier work.

For the compound `NCC(O)c1ccc(O)cc1` (centres unmarked) [Octopamine (OCT), Octopamine], the values for the Ki on hSNORF33 and on rSNORF33 were 0.417 ± 0.285 µM and 0.31 ± 0.071 µM, respectively.
On to `NCCc1c[nH]c2ccccc12` [Tryptamine (T), Tryptamine], for which the inhibitory constant (Ki) on mouse SNORF33 [1] was 0.14 µM; at hSNORF33, 1.13 ± 0.372 µM; at rSNORF33, 0.07 ± 0.014 µM; on cloned 5-HT receptors, 0.001 to 0.1 µM. Further, the “Agonism in the cAMP assay” value on mouse SNORF33 [2] was “full agonists”.
As to `NCCc1ccc(O)cc1` [Tyramine (TYR), Tyramine], the Ki at mouse SNORF33 [1] was 0.019 µM and 0.02 µM; at hSNORF33, 0.051 ± 0.011 µM; on rSNORF33, 0.013 ± 0.004 µM. Also, at mouse SNORF33 [2], the “Agonism in the cAMP assay” value is reported as “full agonists”.
